From PubChem BioAssay AID2060611 (Molecular Pharmacology Branch, DTP, NCI, 2025)

System: 628569-122-R-J1-PDC complex spheroid viability
Assay: Anticancer human tumor 628569-122-R-J1-PDC patient-derived head and neck squamous carcinoma cell line growth inhibition [CLK]
Conditions: for IC50: curve of first compound; for viability, T/C: stronger effect = lower value
Summary of the method: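 Patient-derived tumor cells grown as complex spheroids with HUVEC endothelial cells and mesenchymal stem cells, treated with drug combinations. Concentrations descend in half-log steps from near clinical Cmax, or from 10 microM if Cmax unknown.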
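Further: spheroids exposed to agents for seven days before readout.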
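Wherever viability, T/C is given: 100% = DMSO vehicle control viability.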

Question: How did the IC50 (second compound 0.0316 µM) turn out when COc1ccc([C@@H](O)c2cc(-c3ncnc4cc(N5CCOCC5)ccc34)c(F)cc2Cl)nn1 + CNC(=O)c1ccc(Nc2nc(OC3CCCC3)c3c(-c4ccc5nc(C)oc5c4)c[nH]c3n2)c(OC)c1 was run?
Answer: 2010 nM

Question: What about the IC50 (second compound 0.1 µM) of the same molecule?
Answer: 260 nM

Question: What about the IC50 (second compound 0.316 µM) of the same molecule?
Answer: < 31.6 nM

Question: And the IC50 (second compound 1 µM)?
Answer: < 31.6 nM

Question: And the IC50 (second compound 3.16 µM)?
Answer: < 31.6 nM

Question: And the IC50 (second compound 10 µM)?
Answer: < 31.6 nM

Question: What about the viability, T/C (second compound 0.0316 µM, first compound 0.0316 µM) of the same molecule?
Answer: 83.7%

Question: What about the viability, T/C (second compound 0.0316 µM, first compound 0.1 µM) of the same molecule?
Answer: 80.5%

Question: And the viability, T/C (second compound 0.0316 µM, first compound 0.316 µM)?
Answer: 78.1%

Question: What about the viability, T/C (second compound 0.0316 µM, first compound 1 µM) of the same molecule?
Answer: 61.8%

Question: And the viability, T/C (second compound 0.0316 µM, first compound 3.16 µM)?
Answer: 42.3%

Question: What about the viability, T/C (second compound 0.0316 µM, first compound 10 µM) of the same molecule?
Answer: 35%

Question: What about the viability, T/C (second compound 0.1 µM, first compound 0.0316 µM) of the same molecule?
Answer: 54.5%

Question: What about the viability, T/C (second compound 0.1 µM, first compound 0.1 µM) of the same molecule?
Answer: 47.7%

Question: What about the viability, T/C (second compound 0.1 µM, first compound 0.316 µM) of the same molecule?
Answer: 49.6%

Question: What about the viability, T/C (second compound 0.1 µM, first compound 1 µM) of the same molecule?
Answer: 48.4%

Question: And the viability, T/C (second compound 0.1 µM, first compound 3.16 µM)?
Answer: 41.9%

Question: And the viability, T/C (second compound 0.1 µM, first compound 10 µM)?
Answer: 33.8%

Question: What about the viability, T/C (second compound 0.316 µM, first compound 0.0316 µM) of the same molecule?
Answer: 47.5%

Question: What about the viability, T/C (second compound 0.316 µM, first compound 0.1 µM) of the same molecule?
Answer: 41.4%

Question: And the viability, T/C (second compound 0.316 µM, first compound 0.316 µM)?
Answer: 41.7%

Question: And the viability, T/C (second compound 0.316 µM, first compound 1 µM)?
Answer: 39%

Question: What about the viability, T/C (second compound 0.316 µM, first compound 3.16 µM) of the same molecule?
Answer: 39.4%

Question: What about the viability, T/C (second compound 0.316 µM, first compound 10 µM) of the same molecule?
Answer: 29.7%

Question: What about the viability, T/C (second compound 1 µM, first compound 0.0316 µM) of the same molecule?
Answer: 46.8%

Question: And the viability, T/C (second compound 1 µM, first compound 0.1 µM)?
Answer: 42.9%

Question: And the viability, T/C (second compound 1 µM, first compound 0.316 µM)?
Answer: 41.7%

Question: What about the viability, T/C (second compound 1 µM, first compound 1 µM) of the same molecule?
Answer: 29.6%

Question: What about the viability, T/C (second compound 1 µM, first compound 3.16 µM) of the same molecule?
Answer: 36.4%

Question: What about the viability, T/C (second compound 1 µM, first compound 10 µM) of the same molecule?
Answer: 31.4%

Question: What about the viability, T/C (second compound 3.16 µM, first compound 0.0316 µM) of the same molecule?
Answer: 33.2%

Question: What about the viability, T/C (second compound 3.16 µM, first compound 0.1 µM) of the same molecule?
Answer: 39.5%

Question: What about the viability, T/C (second compound 3.16 µM, first compound 0.316 µM) of the same molecule?
Answer: 34.4%

Question: What about the viability, T/C (second compound 3.16 µM, first compound 1 µM) of the same molecule?
Answer: 37.4%

Question: And the viability, T/C (second compound 3.16 µM, first compound 3.16 µM)?
Answer: 38.4%

Question: And the viability, T/C (second compound 3.16 µM, first compound 10 µM)?
Answer: 21%

Question: And the viability, T/C (second compound 10 µM, first compound 0.0316 µM)?
Answer: 45.1%

Question: What about the viability, T/C (second compound 10 µM, first compound 0.1 µM) of the same molecule?
Answer: 41.7%

Question: And the viability, T/C (second compound 10 µM, first compound 0.316 µM)?
Answer: 32.2%

Question: What about the viability, T/C (second compound 10 µM, first compound 1 µM) of the same molecule?
Answer: 36.1%

Question: What about the viability, T/C (second compound 10 µM, first compound 3.16 µM) of the same molecule?
Answer: 27.8%

Question: And the viability, T/C (second compound 10 µM, first compound 10 µM)?
Answer: 18.9%
